According to patent publication US20100310530A1, “Cell Therapy for Brain Tissue Damage” (StemCyte Inc., priority 2009, published 2010):

Columns and labels:
Epac1 = assay: Western blot of Epac1 in hUCB^34 cells after hypoxia preconditioning or DFX; format: cell-based, human; details: cells treated with DFX, under either hypoxic or normoxic conditions
Procedure: (§1) hUCB^34 cells (1×10^6/mL) were cultured in a StemSpan SFEM medium (StemCell Technologies, Vancouver, Canada) at 37° C. in 5% CO2-humidified incubators in normoxic (20% O2) or hypoxic (1% O2) conditions as previously described (Ivanovic et al., 2000, Br J Haematol 108:424-429). Hypoxic cultures were cultivated in a two-gas incubator (Jouan, Winchester, Va., USA) equipped with an O2 probe to regulate N2 levels. Cell number and viability were evaluated using trypan blue exclusion assay. For flowcytometry, cells were incubated with anti-human CD34 (Miltenyi Biotec, Gladbach, Germany) and then analyzed on a FACSCalibur flow cytometer (Becton, Dickinson and Co.). To produce chemical hypoxia, cells were treated in a medium containing […] of Desferrioxamine (DFX, Sigma-Aldrich, MO) that mimics hypoxic conditions by inhibiting the hydroxylation of a prolyl residue that is essential for the ubiquitination of HIF-1α (Schioppa et al., 2003, J Exp Med 198:1391-1402). […] The intensity of each band was measured using a Kodak Digital Science 1D Image Analysis System (Eastman Kodak, Rochester, N.Y.). The ratio of band intensity of Western blots in comparison with the internal control was calculated. Results were expressed as the mean value of the ratio±SEM for preparations.

[1] = system: hypoxia-inducible factor-1α (HIF-1α); assay: Western blot of HIF-1α in HP- and DFX-treated hUCB^34 cells; format: cell-based, human; details: HP- and DFX-treated hUCBs^34
Procedure: as §1

ischemic rat brains = assay: Cell engraftment and neural differentiation in ischemic brain (immunofluorescent colocalization); format: in vivo; details: injection of GM6001 or brefeldin A-pretreatment of cells
Procedure: (§2) Experimental rats and mice were divided into three groups (FIG. 2A): Intracerebral transplantation of hUCB^34 with HP (HP-hUCB^34), intracerebral transplantation of hUCB^34 without HP (hUCB^34), and a vehicle-control group. All transplantation took place on day 7. The HP-hUCB^34 group was treated in 1% O2 hypoxic conditions for 20-24 hours. Cerebral ischemia was induced in every experimental rat on day 0. At 7 days after cerebral ischemia, experimental rats in the two intracerebral hUCB^34 transplantation groups were injected stereotaxically with approximately 2×10^5 cells of hUCB^34 labeled with bis-benzimide in a 3-5 μL PBS suspension through a 26- or 30-gauge Hamilton syringe into 3 cortical areas, 3.0 to 5.0 mm (2.0 to 3.0 mm for mice) below the dura. The approximate coordinates for these sites were 1.0 to 2.0 mm (0 to 1.0 mm for mice) anterior to the bregma and 3.5 to 4.0 mm (2.0 to 2.5 mm for mice) lateral to the midline, 0.5 to 1.5 mm (0 to 1.0 mm for mice) posterior to the bregma and 4.0 to 4.5 mm (2.0 to 3.5 mm for mice) lateral to the midline, and 3.0 to 4.0 mm (1.5 to 2.5 mm for mice) posterior to the bregma and 4.5 to 5.0 mm (2.0 to 3.0 mm for mice) lateral to the midline. The needle was retained in place for 5 minutes after each injection and a piece of bone wax was applied to the skull defects to prevent leakage of the injected solution. […]

cerebral ischemia rats = assay: Neurological behavioral measurements after cerebral ischemia (MCA ligation); format: in vivo, rat; details: GM6001 ip after HP-hUCB^34 implantation, or brefeldin A-incubated HP-hUCB^34; vs vehicle control
Procedure: as §2

cerebral ischemic rats = assay: Neurite regeneration in vivo in cerebral ischemic rats; set-up: species or system rat; details: cells incubated with 10 μg/mL brefeldin A
Procedure: Experimental rats and mice were divided into three groups (FIG. 2A): Intracerebral transplantation of hUCB^34 with HP (HP-hUCB^34), intracerebral transplantation of hUCB^34 without HP (hUCB^34), and a vehicle-control group. All transplantation took place on day 7. The HP-hUCB^34 group was treated in 1% O2 hypoxic conditions for 20-24 hours. Cerebral ischemia was induced in every experimental rat on day 0. At 7 days after cerebral ischemia, experimental rats in the two intracerebral hUCB^34 transplantation groups were injected stereotaxically with approximately 2×10^5 cells of hUCB^34 labeled with bis-benzimide in a 3-5 μL PBS suspension through a 26- or 30-gauge Hamilton syringe into 3 cortical areas, 3.0 to 5.0 mm (2.0 to 3.0 mm for mice) below the dura. […]
Measurement of neurite regeneration was performed as described earlier (Cafferty et al., 2004, J Neurosci 24:4432-4443). […] For quantification analysis, neurons with processes greater than twice the cell body diameter were counted as neurite-bearing cells. The length of the longest neurite of each neuron was measured from digitized images and quantified using imaging analysis software (SigmaScan 4.01.003).

Row | SMILES | levels of Epac1 versus control cells (Epac1) | protein level of HIF-1α [1] | number of engrafted cells in HP-hUCB^34-treated rats with inhibitor (ischemic rat brains) | neurological behavior recovery after HP-hUCB^34 implantation in presence of inhibitor (cerebral ischemia rats) | neurite regeneration after transplantation of brefeldin A-incubated HP-hUCB^34 (cerebral ischemic rats)
1 | CC(=O)N(O)CCCCCNC(=O)CCC(=O)N(O)CCCCCNC(=O)CCC(=O)N(O)CCCCCN [DFX, Desferrioxamine] | much higher levels of Epac1 than control cells | increase in the protein level |  |  | 
2 | CNC(=O)[C@H](Cc1c[nH]c2ccccc12)NC(=O)[C@@H](CC(=O)NO)CC(C)C [GM6001] |  |  | diminished | almost no recovery | 
3 | C[C@H]1CCC/C=C/[C@@H]2C[C@H](O)C[C@H]2[C@H](O)/C=C/C(=O)O1 [brefeldin A] |  |  | diminished | down-regulated to the same extent as that of control group | could not promote the neurite regeneration
